PubChem BioAssay AID270 (DTP/NCI, 2004)
Values joined by “and” are separate entries in the source; they are usually repeats but may differ in a detail not shown here. Equal entries are not always repeated. Results filed as inconclusive are left out.

System: BDF1 mice, s.c. Lewis lung carcinoma, T/C %
Test: NCI In Vivo Anticancer Drug Screen. Data for tumor model Lewis Lung Carcinoma (subcutaneous) in B6D2F1 (BDF1) mice
In short: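 Transplanted tumors grown in mice; compound vs vehicle dosing; endpoint survival or tumor size; ratio T/C.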

[1] = endpoint: median survival time, dose: 25.0 mg/kg/injection, schedule: Q01DX009 (ip), vehicle: Klucel (hydroxypropylcellulose) (HPC), higher = longer survival
[2] = endpoint: median survival time, dose: 2.5 mg/kg/injection, schedule: Q01DX009 (ip), vehicle: Klucel (hydroxypropylcellulose) (HPC), higher = longer survival
[3] = endpoint: median survival time, dose: 5.0 mg/kg/injection, schedule: Q01DX009 (ip), vehicle: Klucel (hydroxypropylcellulose) (HPC), higher = longer survival
[4] = endpoint: median survival time, dose: 10.0 mg/kg/injection, schedule: Q01DX009 (ip), vehicle: Klucel (hydroxypropylcellulose) (HPC), higher = longer survival
[5] = endpoint: mean tumor weight, dose: 25.0 mg/kg/injection, schedule: Q01DX011 (ip), vehicle: saline, higher = larger tumour
[6] = endpoint: mean tumor weight, dose: 50.0 mg/kg/injection, schedule: Q01DX011 (ip), vehicle: saline, higher = larger tumour
[7] = endpoint: mean tumor weight, dose: 100.0 mg/kg/injection, schedule: Q01DX011 (ip), vehicle: saline, higher = larger tumour
[8] = endpoint: mean tumor weight, dose: 200.0 mg/kg/injection, schedule: Q01DX011 (ip), vehicle: saline, higher = larger tumour

CCC(=O)NC1=C(N2CC2)C(=O)C(NC(=O)CC)=C(N2CC2)C1=O
T/C (endpoint: mean tumor weight, dose: 1.8 mg/kg/injection, schedule: Q01DX011 (ip), vehicle: other, higher = larger tumour): 72 % of control | T/C (endpoint: mean tumor weight, dose: 2.7 mg/kg/injection, schedule: Q01DX011 (ip), vehicle: other, higher = larger tumour): 54 % of control | T/C (endpoint: mean tumor weight, dose: 4.0 mg/kg/injection, schedule: Q01DX011 (ip), vehicle: other, higher = larger tumour): 27 % of control | T/C (endpoint: mean tumor weight, dose: 6.0 mg/kg/injection, schedule: Q01DX011 (ip), vehicle: other, higher = larger tumour): 28 % of control

CCCCCC[C@H]([C@H](C)O)n1cnc2c(N)ncnc21
T/C [1]: 88 % of control | T/C (endpoint: median survival time, dose: 50.0 mg/kg/injection, schedule: Q01DX009 (ip), vehicle: Klucel (hydroxypropylcellulose) (HPC), higher = longer survival): 103 % of control | T/C (endpoint: median survival time, dose: 100.0 mg/kg/injection, schedule: Q01DX009 (ip), vehicle: Klucel (hydroxypropylcellulose) (HPC), higher = longer survival): 111 % of control

CCc1ccccc1N1CCN(C(=O)c2cc(OC)c(OC)c(OC)c2)CC1
T/C (endpoint: mean tumor weight, dose: 25.0 mg/kg/injection, schedule: Q01DX011 (ip), vehicle: carboxymethylcellulose (CMC), higher = larger tumour): 46 % of control and 48 % of control

CCN(CC)c1nc(N(CC)CC)nc(N(CC)CC)n1
T/C (endpoint: median survival time, dose: 25.0 mg/kg/injection, schedule: Q01DX009 (ip), vehicle: saline with Tween-80, higher = longer survival): 95 % of control | T/C (endpoint: median survival time, dose: 50.0 mg/kg/injection, schedule: Q01DX009 (ip), vehicle: saline with Tween-80, higher = longer survival): 105 % of control | T/C (endpoint: median survival time, dose: 100.0 mg/kg/injection, schedule: Q01DX009 (ip), vehicle: saline with Tween-80, higher = longer survival): 95 % of control | T/C (endpoint: median survival time, dose: 200.0 mg/kg/injection, schedule: Q01DX009 (ip), vehicle: saline with Tween-80, higher = longer survival): 104 % of control | T/C (endpoint: median survival time, dose: 400.0 mg/kg/injection, schedule: Q01DX009 (ip), vehicle: saline with Tween-80, higher = longer survival): 89 % of control

COc1cc(C=Nc2ccc(-n3ccnc3C)cc2)ccc1N(CCCl)CCCl
T/C [2]: 116 % of control | T/C [3]: 103 % of control | T/C [4]: 113 % of control

N#CC(Cc1ccccc1)C(=O)O (centres undefined)
T/C (endpoint: mean tumor weight, dose: 55.0 mg/kg/injection, schedule: Q01DX011 (ip), vehicle: other, higher = larger tumour): 80 % of control | T/C (endpoint: mean tumor weight, dose: 83.0 mg/kg/injection, schedule: Q01DX011 (ip), vehicle: other, higher = larger tumour): 68 % of control | T/C (endpoint: mean tumor weight, dose: 125.0 mg/kg/injection, schedule: Q01DX011 (ip), vehicle: other, higher = larger tumour): 75 % of control and 82 % of control | T/C (endpoint: mean tumor weight, dose: 187.0 mg/kg/injection, schedule: Q01DX011 (ip), vehicle: other, higher = larger tumour): 46 % of control | T/C (endpoint: mean tumor weight, dose: 250.0 mg/kg/injection, schedule: Q01DX011 (ip), vehicle: other, higher = larger tumour): 63 % of control | T/C (endpoint: mean tumor weight, dose: 500.0 mg/kg/injection, schedule: Q01DX011 (ip), vehicle: other, higher = larger tumour): 19 % of control

C=CCNC(=O)NCC=C
T/C [5]: 96 % of control | T/C [6]: 28 % of control | T/C [7]: 16 % of control | T/C [8]: 43 % of control

C/C(=N\N=C(/C)c1ccc(-c2ccccc2)cc1)c1ccc(-c2ccccc2)cc1
T/C [5]: 84 % of control | T/C [6]: 85 % of control | T/C [7]: 76 % of control | T/C [8]: 46 % of control

Cc1cccc(C)c1[N+](=O)[O-]
T/C (endpoint: mean tumor weight, dose: 133.0 mg/kg/injection, schedule: Q01DX011 (ip), vehicle: other, higher = larger tumour): 88 % of control | T/C (endpoint: mean tumor weight, dose: 200.0 mg/kg/injection, schedule: Q01DX011 (ip), vehicle: other, higher = larger tumour): 66 % of control | T/C (endpoint: mean tumor weight, dose: 300.0 mg/kg/injection, schedule: Q01DX011 (ip), vehicle: other, higher = larger tumour): 67 % of control

COc1cc2c(c(OC)c1OC)-c1cc3c(cc1[C@@H](OC(C)=O)[C@@H]1COC(=O)[C@H]1C2)OCO3
T/C [2]: 94 % of control | T/C [3]: 97 % of control | T/C [4]: 95 % of control

O=[N+]([O-])c1ccc(/C=N\Nc2ccc([N+](=O)[O-])cn2)cc1
T/C (endpoint: median survival time, dose: 12.5 mg/kg/injection, schedule: Q01DX009 (ip), vehicle: Klucel (hydroxypropylcellulose) (HPC), higher = longer survival): 88 % of control | T/C [1]: 104 % of control

CCCCn1ccnc1C
T/C (endpoint: median survival time, dose: 1.56 mg/kg/injection, schedule: Q01DX009 (ip), vehicle: saline, higher = longer survival): 112 % of control | T/C (endpoint: median survival time, dose: 3.13 mg/kg/injection, schedule: Q01DX009 (ip), vehicle: saline, higher = longer survival): 99 % of control | T/C (endpoint: median survival time, dose: 12.5 mg/kg/injection, schedule: Q01DX009 (ip), vehicle: saline, higher = longer survival): 99 % of control | T/C (endpoint: median survival time, dose: 25.0 mg/kg/injection, schedule: Q01DX009 (ip), vehicle: saline, higher = longer survival): 119 % of control | T/C (endpoint: median survival time, dose: 50.0 mg/kg/injection, schedule: Q01DX009 (ip), vehicle: saline, higher = longer survival): 98 % of control

Cc1cn(C2OC(CO)C(O)C2O)c(=O)[nH]c1=O (centres undefined)
T/C (endpoint: mean tumor weight, dose: 62.5 mg/kg/injection, schedule: Q01DX011 (ip), vehicle: saline, higher = larger tumour): 94 % of control | T/C (endpoint: mean tumor weight, dose: 500.0 mg/kg/injection, schedule: Q01DX011 (ip), vehicle: saline, higher = larger tumour): 109 % of control

N#Cc1ccc(S(N)(=O)=O)cc1
T/C (endpoint: mean tumor weight, dose: 6.2 mg/kg/injection, schedule: Q01DX011 (ip), vehicle: carboxymethylcellulose (CMC), higher = larger tumour): 52 % of control | T/C (endpoint: mean tumor weight, dose: 12.5 mg/kg/injection, schedule: Q01DX011 (ip), vehicle: carboxymethylcellulose (CMC), higher = larger tumour): 66 % of control

C=C(C)C12CC(COC(=O)c3ccccc3)C34OC5(OC1C3C1OC1(CO)C(O)C1(O)C(OC(=O)c3ccccc3)C(C)C(C(C)CCCCCCC5O)C14)O2 (centres undefined)
T/C (endpoint: median survival time, dose: 3.8 micrograms/kg/injection, schedule: Q01DX009 (ip), vehicle: saline, higher = longer survival): 107 % of control | T/C (endpoint: median survival time, dose: 7.5 micrograms/kg/injection, schedule: Q01DX009 (ip), vehicle: saline, higher = longer survival): 100 % of control
